The record followed here is patent publication US20210300940A1 (Merck Patent GmbH, priority 2018, published 2021).

The target of one assay is T1, TLR7 (Homo sapiens, UniProt Q9NYK1).
T1 construct: expressed in transfected cells; host or cells: HEK/293 cells carrying TLR7 and an NF-kB luciferase reporter
T1 sequence (Q9NYK1 27-1049): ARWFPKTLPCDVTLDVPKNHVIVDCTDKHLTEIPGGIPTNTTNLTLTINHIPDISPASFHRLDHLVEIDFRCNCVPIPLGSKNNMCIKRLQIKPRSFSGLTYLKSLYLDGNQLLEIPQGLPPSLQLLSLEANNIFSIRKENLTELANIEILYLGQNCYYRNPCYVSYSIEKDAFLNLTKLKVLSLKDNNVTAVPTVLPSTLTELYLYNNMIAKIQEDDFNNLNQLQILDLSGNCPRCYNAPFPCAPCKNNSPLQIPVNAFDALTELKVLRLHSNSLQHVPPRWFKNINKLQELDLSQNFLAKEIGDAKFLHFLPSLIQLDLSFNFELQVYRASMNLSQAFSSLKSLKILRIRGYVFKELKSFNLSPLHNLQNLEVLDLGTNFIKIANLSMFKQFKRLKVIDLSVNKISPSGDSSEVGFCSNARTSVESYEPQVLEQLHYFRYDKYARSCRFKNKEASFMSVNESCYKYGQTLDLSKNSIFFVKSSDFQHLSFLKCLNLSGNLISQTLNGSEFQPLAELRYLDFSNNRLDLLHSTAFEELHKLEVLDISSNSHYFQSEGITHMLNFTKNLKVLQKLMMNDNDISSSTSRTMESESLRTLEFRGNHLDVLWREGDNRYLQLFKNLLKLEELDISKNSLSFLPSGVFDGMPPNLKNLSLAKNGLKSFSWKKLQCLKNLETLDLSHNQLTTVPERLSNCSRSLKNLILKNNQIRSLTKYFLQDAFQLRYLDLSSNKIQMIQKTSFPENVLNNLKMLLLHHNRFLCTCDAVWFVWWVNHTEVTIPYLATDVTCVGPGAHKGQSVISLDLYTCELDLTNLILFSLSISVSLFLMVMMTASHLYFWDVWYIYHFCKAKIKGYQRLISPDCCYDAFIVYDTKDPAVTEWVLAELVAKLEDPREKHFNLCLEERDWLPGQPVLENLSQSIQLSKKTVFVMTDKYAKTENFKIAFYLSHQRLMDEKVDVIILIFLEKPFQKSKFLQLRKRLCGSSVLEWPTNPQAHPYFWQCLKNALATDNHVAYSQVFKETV
The assay can be described thus: HEK/293 TLR7 Cell Assay. The assay is classed as cell-based. Conditions: TLR7/NFKb HEK cells, R848 agonist 10 uM final concentration, Steady-Glo readout; read-out: TLR7 potency. How it is done:
(§1) Example 389: HEK/293 TLR7 Cell Assay Into 384 CulturePlates (Corning 3765) was placed 5000 c/w of TLR7/NFKb HEK cells in 30 uL DMEM without Phenol red (gibco #31053-028) and 10% heat inactivated fetal bovine serum, 10% penicillin-streptomycin, and 2 mM L-Glutamine. The cells were incubated for 24 h at 37° C., 10% carbon dioxide and 90% relative humidity. 3 uL of controls, standards, and compounds were dispensed into wells, incubated for 30 min then 3 uL of R848 agonist (10 uM final concentration) was added in 20 mM Hepes. After incubation for 5 hours, they were allowed to stand at room temperature for 15 min. To this was added 10 uL of Steady-Glo substrate reagent and shake assay plate for 5 min at 1500 rpm. The assay plate was allowed to sit for 30 min at room temperature and then the plate was read on EnVision.

The next assay deals with T2, TLR8 (Homo sapiens, UniProt Q9NR97).
T2 construct: expressed in transfected cells; host or cells: HEK/293 reporter cells (NF-kB luciferase)
T2 sequence (Q9NR97 27-1041): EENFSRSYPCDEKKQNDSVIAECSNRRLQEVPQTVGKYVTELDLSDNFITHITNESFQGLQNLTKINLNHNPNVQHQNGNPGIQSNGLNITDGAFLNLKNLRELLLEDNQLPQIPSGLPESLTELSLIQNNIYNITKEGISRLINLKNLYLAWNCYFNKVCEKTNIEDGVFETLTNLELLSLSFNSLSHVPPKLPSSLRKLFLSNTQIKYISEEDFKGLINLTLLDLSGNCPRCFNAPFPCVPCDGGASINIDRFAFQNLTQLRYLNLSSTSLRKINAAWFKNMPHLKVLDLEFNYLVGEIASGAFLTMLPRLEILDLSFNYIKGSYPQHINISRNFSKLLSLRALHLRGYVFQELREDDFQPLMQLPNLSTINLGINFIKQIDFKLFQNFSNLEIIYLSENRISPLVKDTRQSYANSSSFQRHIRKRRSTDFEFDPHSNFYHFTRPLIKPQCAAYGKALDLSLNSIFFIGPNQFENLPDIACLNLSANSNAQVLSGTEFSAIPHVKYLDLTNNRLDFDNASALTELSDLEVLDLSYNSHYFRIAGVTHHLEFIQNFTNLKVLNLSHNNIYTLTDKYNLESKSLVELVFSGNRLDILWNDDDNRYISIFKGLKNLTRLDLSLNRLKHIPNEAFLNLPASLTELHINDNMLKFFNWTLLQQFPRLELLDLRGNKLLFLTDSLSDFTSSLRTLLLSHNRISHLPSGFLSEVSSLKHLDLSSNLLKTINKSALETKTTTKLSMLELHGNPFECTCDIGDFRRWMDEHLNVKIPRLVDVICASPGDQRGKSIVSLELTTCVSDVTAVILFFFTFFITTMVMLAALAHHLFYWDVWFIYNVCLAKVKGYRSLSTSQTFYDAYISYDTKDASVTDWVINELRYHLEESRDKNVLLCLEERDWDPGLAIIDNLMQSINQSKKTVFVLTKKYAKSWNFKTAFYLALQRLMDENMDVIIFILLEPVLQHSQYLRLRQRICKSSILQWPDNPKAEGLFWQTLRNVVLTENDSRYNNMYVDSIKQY
In words: HEK/293 TLR8 Cell Assay. The assay is classed as cell-based. Conditions: HEK cells, R848 agonist 30 uM final concentration, Steady-Glo readout; read-out: TLR8 potency. As for the experimental part:
as §1, with “Example 390:” for “Example 389:”, “HEK/293 TLR8” for “HEK/293 TLR7”, “serum, 1%” for “serum, 10%”, “agonist (30” for “agonist (10”

Structures can show the parent of a compound that is named as a salt. Some results are limits rather than exact numbers.

Consider `CN(C)CCNC(=O)N[C@@H]1C[C@H](C(F)(F)F)CN(c2ccc(C#N)c3nccnc23)C1` [Example 139, 1-[(3R,5S)-1-(8-cyanoquinoxalin-5-yl)-5-(trifluoromethyl)piperidin-3-yl]-3-[2-(dimethylamino)ethyl]urea], for which the IC50 at TLR7 and on TLR8 was 75 to 150 nM each time.
Consider `CCN(CC)C1CCN(C[C@H]2CN(c3ccc(C#N)c4nccnc34)C[C@@H](C)O2)CC1` [Example 217, 8-[(2S,6R)-2-(4-Diethylamino-piperidin-1-ylmethyl)-6-methyl-morpholin-4-yl]-quinoxaline-5-carbonitrile], for which the IC50 at TLR7 and at TLR8 was less than 75 nM each time.
`Cc1ccc(N2C[C@@H](C)C[C@@H](NC(=O)CN3CCN(C)CC3)C2)c2cccnc12` [Example 86, N-[(3R,5S)-5-methyl-1-(8-methylquinolin-5-yl)piperidin-3-yl]-2-(4-methylpiperazin-1-yl)acetamide]: the IC50 on TLR7 was 75 to 150 nM; on TLR8 it was less than 75 nM.
In the same order, the values of `CCS(=O)(=O)NCCN[C@@H]1C[C@H](C)CN(c2ccc(C#N)c3nccnc23)C1` [Example 46, Ethane sulfonic acid {2-[(3R,5S)-1-(8-cyano-quinoxalin-5-yl)-5-methyl-piperidin-3-ylamino]-ethyl}-amide] are 75 to 150 nM and less than 75 nM.
For `C[C@@H]1CN(c2cnc(C#N)c3ncccc23)C[C@H](CNCC2(O)COC2)O1` [Example 378, 5-((2S,6R)-2-{[(3-Hydroxy-oxetan-3-ylmethyl)-amino]-methyl}-6-methyl-morpholin-4-yl)-[1,7]naphthyridine-8-carbonitrile], in that order: greater than 150 nM and greater than 150 nM.
For `Cc1ncc(N2C[C@@H](C)C[C@@H](NC(=O)CC3C4CC3CN(C)C4)C2)c2cccnc12` (stereo partly drawn) [Example 165, 2-(3-Methyl-3-aza-bicyclo[3.1.1]hept-6-yl)-N-[(3R,5S)-5-methyl-1-(8-methyl-naphthyridin-5-yl)-piperidin-3-yl]-acetamide], in that order: less than 75 nM and less than 75 nM.
In the case of `C[C@@H]1CN(c2ccc(C#N)c3nccnc23)C[C@H](C(=O)NCC2(F)CCN(C)CC2)O1` [Example 253, (2R,6R)-4-(8-Cyano-quinoxalin-5-yl)-6-methyl-morpholine-2-carboxylic acid (4-fluoro-1-methyl-piperidin-4-ylmethyl)-amide], the IC50 on TLR7 and at TLR8 was less than 75 nM in each case.
As for `C[C@H]1C[C@@H](N)CN(c2cnc(C(F)(F)F)c3ncccc23)C1` [Example 7, (3R,5S)-5-Methyl-1-(8-trifluoromethyl-[1,7]naphthyridin-5-yl)-piperidin-3-ylamine hydrochloride], the IC50 at TLR7 and on TLR8 was less than 75 nM throughout.
On to `N#Cc1ccc(N2C[C@H](NCCCS(N)(=O)=O)C[C@H](C(F)(F)F)C2)c2cccnc12` [Example 38, 3-[(3R,5S)-1-(8-Cyano-quinolin-5-yl)-5-trifluoromethyl-piperidin-3-ylamino]-propane-1-sulfonic acid amide], for which the IC50 on TLR7 is greater than 150 nM; on TLR8, 75 to 150 nM.
Regarding `N[C@H](CO)C(=O)N[C@@H]1C[C@H](C(F)(F)F)CN(c2ccc(C(F)(F)F)c3ncccc23)C1` [Example 172, (R)-2-Amino-3-hydroxy-N-[(3R,5S)-5-trifluoromethyl-1-(8-trifluoromethyl-quinolin-5-yl)-piperidin-3-yl]-propionamide], the figures for the IC50 on TLR7 and at TLR8 were 75 to 150 nM and greater than 150 nM, respectively.
For `C[C@H]1C[C@@H](NC(=O)CC2(F)CCN(C)CC2)CN(c2ccc(C#N)c3ncncc23)C1` [Example 88, N-[(3R,5S)-1-(8-cyanoquinazolin-5-yl)-5-methylpiperidin-3-yl]-2-(4-fluoro-1-methylpiperidin-4-yl)acetamide], in that order: less than 75 nM and less than 75 nM.
As for `C[C@@H]1CN(c2cnc(C#N)c3ncccc23)C[C@H](Cn2cc(C(=O)O)cn2)O1` [Example 365, 1-[(2R,6R)-4-(8-Cyano-[1,7]naphthyridin-5-yl)-6-methyl-morpholin-2-ylmethyl]-1H-pyrazole-4-carboxylic acid], the IC50 on TLR7 and on TLR8 was less than 75 nM each time.
On to `C[C@@H]1CN(c2cnc(C#N)c3ncccc23)C[C@H](C(=O)NCC2(F)CCNCC2)O1` [Example 300, (2R,6R)-4-(8-Cyano-[1,7]naphthyridin-5-yl)-6-methyl-morpholine-2-carboxylic acid (4-fluoro-piperidin-4-ylmethyl)-amide], for which the IC50 at TLR7 was less than 75 nM; on TLR8, 75 to 150 nM.
In the same order, the values of `C[C@H]1C[C@@H](n2ccnc2)CN(c2ccc(C(F)(F)F)c3nccnc23)C1` [Example 157, 5-[(3R,5S)-3-(1H-imidazol-1-yl)-5-methylpiperidin-1-yl]-8-(trifluoromethyl)quinoxaline] are greater than 150 nM and less than 75 nM.
In the same order, the values of `Cc1c(F)cc(N2C[C@H](NC(=O)CC3C4CC3CN(C)C4)C[C@H](C(F)(F)F)C2)c2cccnc12` (stereo partly drawn) [Example 113, N-[(3R,5S)-1-(7-Fluoro-8-methyl-quinolin-5-yl)-5-trifluoromethyl-piperidin-3-yl]-2-(3-methyl-3-aza-bicyclo[3.1.1]hept-6-yl)-acetamide] are 75 to 150 nM and less than 75 nM.
For `C[C@H]1CN(c2ccc(C#N)c3nccnc23)C[C@H](CN2CCC(N3CCCC3)CC2)O1` [Example 232, 8-[(2S,6S)-2-Methyl-6-(4-pyrrolidin-1-yl-piperidin-1-ylmethyl)-morpholin-4-yl]-quinoxaline-5-carbonitrile], in that order: less than 75 nM and less than 75 nM.
